Results published in PubChem BioAssay (NCI).
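Five compound concentrations were applied to cells in 96-well plates for 48 hours; endpoints were derived by simple linear interpolation of the resulting dose-response curve. TGI: total growth inhibition.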 Where a SMILES comes first, the peptide text is derived from it. [ ]: non-standard residue; d: D form. The star is where a group is joined. ξ: configuration not given here. X28 = COC1=CC(=O)N(C(=O)[C@@H](O*)C(C)C)[C@H]1Cc1ccccc1; X37 = O=C(OCc1ccccc1)[C@@H]1CCC[C@H]1N*; Fmoc = O=C(OCC1c2ccccc2-c2ccccc21)*; ξW = NC(Cc1c[nH]c2ccccc12)C(=O)O; NMeL = CN[C@@H](CC(C)C)C(=O)O; ξF = NC(Cc1ccccc1)C(=O)O; Hexanoyl = CCCCCC(=O)*; Boc = CC(C)(C)OC(=O)*; ξK = NCCCCC(N)C(=O)O; ξT = CC(O)C(N)C(=O)O; OBn = c1ccc(CO*)cc1; Bn = c1ccc(C*)cc1; tBu = CC(C)(C)*

Key:
Assay in all cases: NCI anticancer screen, dose series, 48 h
ACHN renal = system: ACHN renal
CAKI-1 renal = system: CAKI-1 renal
COLO 205 colon = system: COLO 205 colon
EKVX NSCLC = system: EKVX NSCLC
MCF7 breast = system: MCF7 breast
NCI-H522 lung = system: NCI-H522 lung
OVCAR-4 ovarian = system: OVCAR-4 ovarian
OVCAR-5 ovarian = system: OVCAR-5 ovarian
RXF 393 renal = system: RXF 393 renal
SK-MEL-5 melanoma = system: SK-MEL-5 melanoma
SNB-75 CNS = system: SNB-75 CNS

SMILES	TGI (ACHN renal)	TGI (CAKI-1 renal)	TGI (COLO 205 colon)	TGI (EKVX NSCLC)	TGI (MCF7 breast)	TGI (NCI-H522 lung)	TGI (OVCAR-4 ovarian)	TGI (OVCAR-5 ovarian)	TGI (RXF 393 renal)	TGI (SK-MEL-5 melanoma)	TGI (SNB-75 CNS)
O=C(/C=C1\N=C(c2ccccc2)N(c2ccc3c(c2)Sc2cc(N4C(=O)/C(=C/C(=O)/C=C/c5ccccc5)N=C4c4ccccc4)ccc2N3)C1=O)/C=C/c1ccccc1	> 100 µM	> 100 µM	> 100 µM	> 100 µM	56.1 µM	46.8 µM	41.8 µM	48.8 µM	> 100 µM	33.5 µM	45.6 µM
CCOC(=O)C1(C(=O)OCC)C[C@H]2CON=C2[C@@H]1c1ccc(C(F)(F)F)cc1	34.4 µM	> 100 µM	> 100 µM	96.6 µM	> 100 µM	61 µM	61.4 µM	> 100 µM	> 100 µM	> 100 µM	> 100 µM
COCOc1cc(OC)ccc1C=O	> 100 µM	> 100 µM	54.2 µM	> 100 µM	> 100 µM	> 100 µM	> 100 µM	> 100 µM	39.1 µM	> 100 µM	> 100 µM
c1ccc(COc2nc3ccc(C45CC6CC(CC(C6)C4)C5)cc3[nH]2)cc1	> 100 µM	> 100 µM	21.2 µM	> 100 µM	> 100 µM	13.9 µM	> 100 µM	> 100 µM	55.8 µM	14.6 µM	> 86.5 µM
CC1(C)OC1CC/C(=C/CBr)CBr (stereo not drawn)	30.9 µM	32.3 µM	29.4 µM	33.3 µM	28.5 µM	23.5 µM	32.1 µM	31.5 µM	31.2 µM	27.5 µM	21 µM
Cc1cc2nc3c(C#N)c(-c4ccccc4)/c(=C\Nc4cccc(C(F)(F)F)c4)c(=O)n3c2cc1C	> 100 µM	> 100 µM	> 100 µM	> 100 µM	> 100 µM	93.7 µM	> 100 µM	> 100 µM	> 100 µM	> 100 µM	> 100 µM
CCCCCC(=O)N[C@H](C(=O)N[C@H](C(=O)N(C)[C@@H](CC(C)C)C(=O)N1CCC[C@H]1C(=O)N1CCC[C@H]1C(=O)O[C@H](C(=O)N1C(=O)C=C(OC)[C@@H]1Cc1ccccc1)C(C)C)C(C)C)C(C)C (Hexanoyl-VV[NMeL]PP-X28)	> 100 µM	> 100 µM	> 100 µM	> 100 µM	> 100 µM	> 100 µM	> 100 µM	> 100 µM	90.3 µM	–	70.8 µM
Cn1c2ccccc2n2c(=O)c(-c3ccc(O)cc3)nnc12	> 100 µM	> 100 µM	> 100 µM	> 100 µM	> 100 µM	> 100 µM	> 100 µM	> 100 µM	–	> 100 µM	75 µM
CC1(c2cccc(C3CCC4(C=CC3=O)OCCO4)c2)OCCO1 (stereo not drawn)	15.5 µM	21.1 µM	18.6 µM	37.5 µM	25.9 µM	3.53 µM	18.1 µM	32.2 µM	11.5 µM	28 µM	30.3 µM
CCOC(=O)Cc1csc(/N=C\c2c(O)c3ccccc3oc2=O)n1	> 100 µM	> 100 µM	> 100 µM	> 100 µM	> 100 µM	42.4 µM	> 100 µM	> 100 µM	> 100 µM	52.6 µM	56.7 µM
CC(=O)c1nc2ccccc2n1CC(=O)c1ccc([N+](=O)[O-])cc1	–	53.7 µM	> 100 µM	> 100 µM	58.8 µM	15.7 µM	> 100 µM	–	> 100 µM	–	> 100 µM
CC(=O)NC1C(OCC(=O)NC(C)C(=O)NC(CCC(=O)NCCCCCNc2ccc([N+](=O)[O-])c3[nH]c4ccccc4c(=O)c23)C(N)=O)C(O)C(CO)OC1(C)OCc1ccccc1 (stereo not drawn)	> 50 µM	> 50 µM	> 50 µM	> 50 µM	> 50 µM	> 50 µM	> 50 µM	> 50 µM	19.5 µM	> 50 µM	> 50 µM
COc1cc(/C=C\c2ccc(SC)cc2)cc(OC)c1OC	> 100 µM	–	0.108 µM	> 100 µM	> 100 µM	0.0369 µM	> 100 µM	> 18.5 µM	0.0402 µM	2.72 µM	> 100 µM
C=C(C)C1CC2=C(C(=O)OC)C=C(O2)C(C(=C)C)[C@@H]2OC(=O)/C(=C\C1O)[C@H]2N(C)C (stereo partly drawn)	24 µM	21.2 µM	29 µM	29 µM	24.9 µM	10.3 µM	21 µM	38 µM	15.7 µM	27.9 µM	30.4 µM
CC(=O)C1=CC=C/C1=N\Nc1ccccc1	23.4 µM	11.8 µM	22.9 µM	23 µM	5.68 µM	19.1 µM	20.1 µM	19.7 µM	34.5 µM	29.8 µM	24.6 µM
CC(C)(C)[C@@H]1NC(=O)CN1C(=O)OCc1ccccc1	> 100 µM	–	> 100 µM	> 100 µM	> 100 µM	> 100 µM	> 100 µM	> 100 µM	> 100 µM	> 100 µM	> 100 µM
COc1ccc(N(C(=O)OC(C)(C)C)[C@@H]2C(C)=C[C@H]([S@@](=O)c3ccc(C)cc3)[C@@H]3C(=O)N(C)C(=O)[C@@H]32)cc1	43.8 µM	52.6 µM	31 µM	9.85 µM	62.1 µM	18.5 µM	34.2 µM	43.1 µM	30.4 µM	43.7 µM	21.4 µM
CC(=O)OCc1ccc(-c2nc(C#N)c(N)o2)o1	> 10 µM	> 10 µM	> 10 µM	> 10 µM	> 10 µM	> 10 µM	> 10 µM	–	> 10 µM	> 10 µM	> 10 µM
CCCCc1ccc(N2C(=O)c3cc(C)cnc3S2(=O)=O)cc1	> 100 µM	–	> 100 µM	> 100 µM	> 100 µM	> 100 µM	> 100 µM	> 100 µM	> 100 µM	> 100 µM	> 100 µM

SMILES	TGI (ACHN renal)	TGI (CAKI-1 renal)	TGI (COLO 205 colon)	TGI (EKVX NSCLC)	TGI (MCF7 breast)	TGI (NCI-H522 lung)	TGI (OVCAR-4 ovarian)	TGI (OVCAR-5 ovarian)	TGI (RXF 393 renal)	TGI (SK-MEL-5 melanoma)	TGI (SNB-75 CNS)
CC(OC(C)(C)C)C(NC(=O)C(CCCCNC(=O)OC(C)(C)C)NC(=O)C(Cc1c[nH]c2ccccc12)NC(=O)C(Cc1ccccc1)NC(=O)OCC1c2ccccc2-c2ccccc21)C(=O)NC(Cc1ccccc1)C(=O)N[C@@H]1CCC[C@H]1C(=O)OCc1ccccc1 (stereo partly drawn) (Fmoc-[ξF][ξW][ξK](Boc)[ξT](tBu)[ξF]-X37)	> 100 µM	> 100 µM	> 100 µM	> 100 µM	> 100 µM	> 100 µM	> 100 µM	> 100 µM	> 100 µM	> 100 µM	> 100 µM
COc1cc(O)c(C(=O)/C=C/c2ccc(O)cc2)cc1Oc1ccc(C(=O)/C=C/c2ccc(O)cc2)c(O)c1	5.02 µM	9.69 µM	3.58 µM	5.68 µM	13.5 µM	6.22 µM	8.37 µM	5.6 µM	6.1 µM	4.19 µM	7.5 µM
Cc1ccc(S(=O)/C=C(\NC(=O)OCc2ccccc2)C(F)(F)F)cc1 (stereo not drawn)	71 µM	> 100 µM	> 100 µM	> 100 µM	> 100 µM	> 100 µM	> 100 µM	> 100 µM	> 100 µM	> 100 µM	91.4 µM
CC(C)CC(NC(=O)C(Cc1ccccc1)NC(=O)C(COCc1ccccc1)NC(=O)OC(C)(C)C)C(=O)OCc1ccccc1 (stereo not drawn) (Boc-Ser(Bn)-Phe-Leu-OBn; configuration not given here)	33.1 µM	> 100 µM	43.9 µM	61.5 µM	> 100 µM	31.9 µM	> 100 µM	> 100 µM	–	–	57.6 µM
CC(C)(C)NNc1c([N+](=O)[O-])cnn(-c2ccccc2)c1=O	16.4 µM	21.1 µM	12.6 µM	25.6 µM	14.1 µM	4.72 µM	6.61 µM	15.5 µM	18.1 µM	11.1 µM	23.8 µM
O=C1/C(=C/c2ccc(O)cc2)CCC1CNc1ccc(Cl)cc1 (stereo not drawn)	11.6 µM	8.84 µM	3.24 µM	21.5 µM	6.82 µM	2.49 µM	8.86 µM	23.5 µM	15.6 µM	20.8 µM	29.7 µM
NC12c3c4cccc3Oc3cccc(c31)Oc1cccc(c12)O4	> 50 µM	> 50 µM	> 50 µM	> 50 µM	> 50 µM	> 50 µM	> 50 µM	> 50 µM	> 50 µM	–	> 50 µM
COc1ccc2c(c1)CCC(CN1CCN(CCOC(c3ccc(F)cc3)c3ccc(F)cc3)CC1)=C2	> 100 µM	> 100 µM	10.4 µM	29.6 µM	71.9 µM	27.8 µM	> 100 µM	97.4 µM	26.8 µM	18.5 µM	> 100 µM
COc1ccc2c(c1)CC[C@@H]1C2CC[C@]2(C)OC(=O)CCC12 (stereo partly drawn)	> 100 µM	> 100 µM	> 100 µM	21.3 µM	35.2 µM	19.4 µM	28.1 µM	30.9 µM	29 µM	29.5 µM	–
c1ccc(/C(=N/Nc2cnccn2)c2ncccn2)cc1	> 100 µM	> 100 µM	> 100 µM	> 100 µM	> 100 µM	44.7 µM	> 100 µM	> 100 µM	> 100 µM	> 100 µM	> 100 µM
CCOc1ccc(N=NC2C(=O)N(C(=O)CC(=O)Nc3ccc(Cl)cc3)N=C2C)cc1 (stereo not drawn)	> 100 µM	> 100 µM	> 100 µM	> 100 µM	> 100 µM	> 100 µM	> 100 µM	> 100 µM	> 100 µM	> 100 µM	> 100 µM
Nc1nc(Cl)cc(NCC2(CO)CC(CCCCc3ccccc3)C2)n1 (stereo not drawn)	> 100 µM	> 100 µM	> 100 µM	> 100 µM	> 100 µM	> 100 µM	> 100 µM	> 100 µM	> 100 µM	> 100 µM	> 100 µM
COc1ccc(NS(=O)C2CCCCC2)cc1 (stereo not drawn)	> 100 µM	> 100 µM	> 100 µM	> 100 µM	> 100 µM	> 100 µM	–	> 100 µM	> 100 µM	> 100 µM	> 100 µM
N=C(/C=C/c1ccc(-c2cn3cc(/C=C/C(=N)N4CCOCC4)ccc3n2)cc1)N1CCOCC1	> 100 µM	> 100 µM	> 100 µM	> 100 µM	> 100 µM	> 100 µM	> 100 µM	> 100 µM	> 100 µM	> 100 µM	> 100 µM
CCN(CC)P1(=S)Oc2ccc3ccccc3c2-c2c(ccc3ccccc23)O1	> 100 µM	> 100 µM	> 100 µM	> 100 µM	> 100 µM	> 100 µM	> 100 µM	> 100 µM	–	> 100 µM	> 100 µM
NS(=O)(=O)c1ccc(CNC(=S)NC(=O)Nc2ccc(Cl)c(Cl)c2)cc1	46 µM	–	77.4 µM	–	39 µM	34.2 µM	> 100 µM	> 100 µM	84.7 µM	33 µM	60.2 µM
COc1ccc(N=NN2CCCC2)cc1	29.9 µM	35.1 µM	35.5 µM	58.8 µM	78 µM	32.2 µM	43.6 µM	> 100 µM	64.1 µM	> 100 µM	–
CCOC(=O)c1c(OCC)[nH]c(=O)c(C(c2ccc(F)cc2)c2c(O)c(C(=O)OCC)c(OCC)[nH]c2=O)c1O	31.7 µM	42.4 µM	79.8 µM	33.2 µM	60.7 µM	42 µM	48.3 µM	> 100 µM	23 µM	25.9 µM	–
COC(=O)c1c(C)nc(C)c(N=O)c1-c1ccccc1C(F)(F)F	> 100 µM	23 µM	> 100 µM	> 100 µM	40.8 µM	18.7 µM	31.8 µM	51.4 µM	29.7 µM	89.4 µM	–
